Results taken from the NIST ThermoML archive (doi:10.1016/j.jct.2006.06.008).

Assay: xn = mol fraction of the nth substance listed
Settings: 101 kPa, Liquid

C1CCCCC1 [cyclohexane] + CCO
Settings | mass density, 293.15 K [kg/m3] | mass density, 298.15 K [kg/m3] | mass density, 303.15 K [kg/m3] | speed of sound, 293.15 K [m/s] | speed of sound, 298.15 K [m/s] | speed of sound, 303.15 K [m/s] | viscosity, 293.15 K [mPa·s] | viscosity, 298.15 K [mPa·s] | viscosity, 303.15 K [mPa·s]
x1 = 0.0473 | 787 | 782.65 | 778.29 | 1162 | 1144 | 1127 | 1.148 | 1.046 | 0.956
x1 = 0.096 | 784.97 | 780.6 | 776.2 | 1165 | 1147 | 1129 | 1.102 | 1.009 | 0.922
x1 = 0.2043 | 781.33 | 776.87 | 772.37 | 1174 | 1155 | 1135 | 1.051 | 0.954 | 0.875
x1 = 0.3028 | 779.4 | 774.86 | 770.28 | 1184 | 1164 | 1144 | 1.005 | 0.918 | 0.838
x1 = 0.3979 | 778.2 | 773.6 | 768.95 | 1195 | 1174 | 1153 | 0.978 | 0.893 | 0.818
x1 = 0.5027 | 777.4 | 772.73 | 768 | 1208 | 1186 | 1164 | 0.954 | 0.87 | 0.796
x1 = 0.5939 | 776.98 | 772.26 | 767.49 | 1219 | 1196 | 1174 | 0.934 | 0.853 | 0.781
x1 = 0.7051 | 776.79 | 772.03 | 767.22 | 1232 | 1209 | 1186 | 0.915 | 0.836 | 0.769
x1 = 0.8055 | 776.89 | 772.11 | 767.28 | 1245 | 1221 | 1197 | 0.908 | 0.833 | 0.769
x1 = 0.9041 | 777.3 | 772.5 | 767.8 | 1258 | 1235 | 1211 | 0.923 | 0.846 | 0.778
x1 = 0.9534 | 777.74 | 772.98 | 768.18 | 1267 | 1242 | 1218 | 0.941 | 0.862 | 0.793
x1 = 1 | 778.62 | 773.92 | 769.19 | 1279 | 1254 | 1230 | 0.968 | 0.887 | 0.816
